Results on four compounds are retold here after US11980595B2, “Preventive or therapeutic agent and pharmaceutical composition for inflammatory diseases or bone diseases” (National University Corporation Chiba University, priority 2018, dated 2024).

The structures appear in SMILES notation.

The test system of one experiment is Interleukin (IL)-6. The experiment is described as follows: Inflammatory cytokine IL-6 in plasma of DSS ulcerative colitis model mice (ELISA). It counts as in vivo. The settings on record: for IL-6 concentration in blood: 3% DSS mice, plasma day 15, compared to DSS+saline.
Source text: Furthermore, after the blood collection was completed, the mice in each group were euthanized by exsanguination under isoflurane anesthesia.
(§1) Interleukin (IL)-6 was quantified as the inflammatory cytokine. IL-6 was quantified by ELISA method using a commercially available kit.
Furthermore, after blood collection was completed, the mice in each group were euthanized by exsanguination under isoflurane anesthesia.
as §1

Experiment [1] deals with DSS-treated mice, the ulcerative colitis animal model. The experiment is described as follows: Disease condition score in DSS ulcerative colitis model mice. The settings on record: for disease condition score: 3% DSS mice, scored day 7, 10, 12, 14.
The next experiment deals with ovariectomized mice. The experiment is described as follows: Femur bone density by X-ray CT in ovariectomized mice (osteoporosis model). The experiment is classed as in vivo. The settings on record: Experimental Example 13, 10 mg/kg i.p. Monday and Thursday, 6 weeks after surgery, compared to saline. The source says: The effect of R-ketamine was examined using ovariectomized mice as a model animal for osteoporosis.

In experiment [2] the test system is social defeat stress mice. The experiment is described as follows: Behavioral rating (tail suspension, forced swimming, sucrose preference tests) in social defeat stress mice. The settings on record: Experimental Example 11, 10 mg/kg i.p. once on D12, tests D12-D14, compared to saline.
The next experiment deals with RANKL. The experiment can be described thus: Plasma RANKL and OPG/RANKL ratio in social defeat stress mice (ELISA). The settings on record: for OPG/RANKL ratio / RANKL concentration in plasma: compared to saline; for restoring abnormally high expression of RANKL to a normal value: summary of Experimental Example 6, 10 mg/kg i.p. once; for therapeutic effect (restoring abnormally high expression of RANKL to a normal value): summary of Experimental Example 11, 10 mg/kg i.p. once. Background: An ELISA detects its analyte on a solid surface through an enzyme-linked reagent.

Experiment [3] has as its system social defeat stress mice. The experiment can be described thus: Femur bone density by X-ray CT in social defeat stress mice. It counts as in vivo. Conditions: Experimental Example 11, 10 mg/kg i.p. once, D15, compared to saline.
For the next experiment, the system named is sRANKL-administered mice. The experiment can be described thus: Femur bone density by X-ray CT in sRANKL-administered mice (osteoporosis model). Conditions: Experimental Example 12, sRANKL (1 mg/kg) mice, 10 mg/kg i.p. 30 minutes before sRANKL and 24 and 48 hours after.
The subject of experiment [4] is DSS-treated mice, the ulcerative colitis animal model. The experiment is described as follows: Colonic inflammation score in DSS ulcerative colitis model mice. The experiment is classed as in vivo. Conditions: 3% DSS mice, 10 mg/kg i.p. once a day for 14 days, day 15. As to the method: The mice from each group that had been euthanized were resected from cecum to anus, and a length from directly below the cecum to the anus was measured. Subsequently, the lumen of the colon was washed with saline, and after washing, an incision was made in the longitudinal direction, and a colonic inflammation score was determined according to the following evaluation criteria.
The mice from each group that had been euthanized were resected from the cecum to the anus, and the length from directly below the cecum to the anus was measured.

The test system of a further experiment is NMDA receptors. Conditions: S-ketamine compared to R-ketamine; cited from earlier work.
[5] abbreviates: Experimental Example 4, 10 mg/kg i.p. once a day for 14 days.
The mark [6] stands for this setting: Experimental Example 6, 10 mg/kg i.p. once, four days after.
Where [7] appears, read: Experimental Example 6, 10 mg/kg i.p. once, plasma four days after.
Where [8] appears, read: Experimental Example 11, 10 mg/kg i.p. once, plasma three days after (D15).
Setting [9] is: Experimental Example 2, 10 mg/kg i.p. once a day for 14 days.
[10] abbreviates: summary of Experimental Examples 1 to 4, intraperitoneal 10 mg/kg.

Turning to `Nc1ccc(O)c(C(=O)O)c1` [5-ASA, 5-aminosalicylic acid, reference compound], the “IL-6 concentration in blood” value in the experiment with Interleukin (IL)-6 (Experimental Example 10, 50 mg/kg i.p. once a day for 14 days) was “a significant decrease of IL-6 concentration in blood was not observed”. Besides, the disease condition score entry in experiment [1] (Experimental Example 8, 50 mg/kg i.p. once a day for 14 days, compared to DSS and saline) is recorded as “improvement tendency of the disease condition score was observed in the “DSS+5-ASA” group, but it was not significant”. Moreover, the “therapeutic effect in ulcerative colitis animal model” value in [1] (summary of Experimental Examples 7 to 10, intraperitoneal 50 mg/kg) is “extremely weak therapeutic effect”.
Regarding `CN[C@@]1(c2ccccc2Cl)CCCCC1=O` [R-ketamine], the cancellous bone density result with ovariectomized mice is recorded as “tended to increase along with R-ketamine administration, but it was not statistically significant”; with sRANKL-administered mice it was “significantly increased”. Besides, the cortical bone density entry (in the experiment on ovariectomized mice; in experiment [3]; with sRANKL-administered mice (compared to saline)) was “significantly improved” throughout. In the experiment on ovariectomized mice, the plane bone density entry is listed as “tended to increase along with R-ketamine administration, but it was not statistically significant”. In addition, the total bone density result (with ovariectomized mice; in [3]; in the experiment on sRANKL-administered mice (compared to saline)) was “significantly improved” throughout. For the same compound, in experiment [2], the “antidepressant effect (tail suspension test, forced swimming test, sucrose preference test)” value is given as “significantly higher antidepressant effect”. In the experiment with Interleukin (IL)-6 (setting [5]), the “effect of reducing IL-6 in blood, R-ketamine compared to S-ketamine” value was “higher than when administering S-ketamine”. Moreover, the “IL-6 concentration in blood” value was “significant decrease of IL-6 concentration in blood” with Interleukin (IL)-6 (setting [5]) and “a significant decrease of IL-6 concentration in blood was observed” with Interleukin (IL)-6 (Experimental Example 10, 10 mg/kg i.p. once a day for 14 days). Besides, the OPG/RANKL ratio entry in the experiment with RANKL (setting [6]) is listed as “significantly increased”; in the experiment on RANKL (Experimental Example 11, 10 mg/kg i.p. once, three days after (D15)) it was “significantly increased”. Besides, the “RANKL concentration in plasma” value in the experiment with RANKL (setting [7]) and with RANKL (setting [8]) was “significantly decreased” in each case. In addition, in the experiment on RANKL, the “restoring abnormally high expression of RANKL to a normal value” is “able to restore an abnormally high expression of RANKL to a normal value”. In addition, in the experiment with RANKL, the “therapeutic effect (restoring abnormally high expression of RANKL to a normal value)” value is given as “able to restore an abnormally high expression of RANKL to a normal value”. The disease condition score result in experiment [1] (setting [9]) is “significant improvement of the disease condition score”; in experiment [1] (Experimental Example 8, 10 mg/kg i.p. once a day for 14 days, compared to DSS and saline), “significant improvement of the disease condition score”. For the same compound, the “therapeutic effect in ulcerative colitis animal model” value was “exhibited a therapeutic effect” in experiment [1] (setting [10]) and “significant therapeutic effect” in experiment [1] (summary of Experimental Examples 7 to 10, intraperitoneal 10 mg/kg). For the same compound, the colonic inflammation score entry in experiment [4] (Experimental Example 3, compared to DSS+S-ketamine group) is listed as “significant improvement of the colonic inflammation score”; in experiment [4] (Experimental Example 9, compared to DSS+5-ASA (50 mg/kg) group), “significant improvement of the colonic inflammation score”.
For the compound `N[C@@]1(c2ccccc2Cl)CCC[C@@H](O)C1=O` [2R,6R-HNK, 2R,6R-hydroxynorketamine], the “antidepressant effect (tail suspension test, forced swimming test, sucrose preference test)” value in [2] is reported as “no antidepressant effect”. For the same compound, in the experiment with RANKL (setting [8]), the “RANKL concentration in plasma” value is “a significant change to RANKL concentration in plasma was not observed”. The OPG/RANKL ratio entry in the experiment on RANKL (Experimental Example 11, 10 mg/kg i.p. once, three days after (D15), 10 mg/kg) was “a significant change to the OPG/RANKL ratio was not observed”. Moreover, the “therapeutic effect (restoring abnormally high expression of RANKL to a normal value)” value in the experiment on RANKL is on record as “no therapeutic effect was observed”. Moreover, in [3], the cortical bone density result is “no significant change” and the total bone density result was “no significant change”.
Take `CN[C@]1(c2ccccc2Cl)CCCCC1=O` [S-ketamine]: the “IL-6 concentration in blood” value in the experiment with Interleukin (IL)-6 (setting [5]) is “significant decrease of IL-6 concentration in blood”. Also, the OPG/RANKL ratio result in the experiment with RANKL (setting [6]) was “a significant change to the OPG/RANKL ratio was not observed”. Further, the “RANKL concentration in plasma” value in the experiment on RANKL (setting [7]) is “a significant change to RANKL concentration in plasma was not observed”. In addition, the “restoring abnormally high expression of RANKL to a normal value” in the experiment with RANKL is listed as “such an effect was not observed”. Further, the disease condition score result in experiment [1] (setting [9]) is given as “improvement tendency of the disease condition score was observed in the “DSS+S-ketamine” group, but it was not significant”. Further, the “therapeutic effect in ulcerative colitis animal model” value in [1] (setting [10]) was “exhibited a tendency for a therapeutic effect in the ulcerative colitis animal model, but the effect was weaker than that of R-ketamine”. Moreover, the “affinity for NMDA receptors” value in the experiment with NMDA receptors was “stronger affinity for NMDA receptors than R-ketamine”.
